The subject of series [1] is trabecular bone of the tarsometatarsal bone of hens. Put plainly: Histomorphometric examination of trabecular bone volume of the tarsometatarsal bone after a single subcutaneous administration. It counts as in vivo, hens of ISA Brown strain. On the procedure:
(§1) A total number of 216 hens of ISA Brown strain between 15 and 17 weeks old was divided into 3 groups for the purpose of evaluating the effects on bone of a single subcutaneous administration of tiludronic acid, in the form of its sodium salt (disodium tiludronate).
(§2) Three doses were compared: 0, 1 and 10 mg/kg (corresponding amount of tiludronic acid/kg). The tiludronic acid was administered in the form of injectable aqueous solutions such that the volume injected per bird was 1 ml per kilo of live weight. The tiludronic acid solutions were thus concentrated to 0.1% and 1% for the doses of 1 and 10 mg/kg, respectively. The control group received a placebo corresponding to water for an injectable preparation. The injections were performed subcutaneously in the region above the superficial pectoral muscle.
(§3) The hens were housed in individual cages in the same building at controlled temperature and hygrometry. Each animal was identified by a number carried on a ring attached to a wing. They received the same standard feed for laying hens, freely throughout the duration of the study. The drinking water was also distributed freely.
(§4) The average age of onset of laying for the hens in this strain is 20 weeks. Consequently, the average delay between the treatment and the age of onset of laying had to be from 3 to 5 weeks. The duration of the study was 40 weeks. At the end of the study, the hens were 55 weeks old.
(§5) Half of the total number was sacrificed on laying the first egg, in order to carry out a histomorphometric examination performed on a decalcified section of the proximal region of one of the tarsometatarsal bones in order to measure the trabecular and medullary bone volumes.
(§6) The other half of the total number of hens was monitored up to 55 weeks of age (i.e. after about 34 weeks of laying), at which point all the remaining animals were sacrificed. The same bone examination was carried out on these animals as on the hens sacrificed after laying the first egg.
(§7) The bone parameters were compared by means of a one-factor variance analysis (dose factor).
(§8) The histomorphometric examination carried out allows the changes in the structure of the bone to be assessed.

In series [2] the test system is medullary bone of the tarsometatarsal bone of hens. Nature of the series: Histomorphometric examination of medullary bone volume of the tarsometatarsal bone after a single subcutaneous administration. It counts as in vivo, hens of ISA Brown strain. How it is done:
as §1, §2, §3, §4, §5, §6, §7, §8

In series [3] the test system is osteoporosis in menopausal women. The following applies: 50 or 200 mg per person orally; cited from earlier work.
The subject of series [4] is trabecular bone of laying hens. The following applies: cited from earlier work.
The test system of series [5] is medullary bone of laying hens. The following applies: 18 weeks after the onset of laying; treated before the onset of laying; cited from earlier work.
Series [6] concerns egg production of laying hens. To be noted: administered during laying; decrease or even stoppage of laying as a function of the dose; cited from earlier work.
Setting [7] is: at 55 weeks old, 1 mg/kg single subcutaneous injection.
The mark [8] stands for this setting: at 55 weeks old, 10 mg/kg single subcutaneous injection.

Data on two molecules can be found in patent publication US6482809B1, “Use of tiludronic acid and derivatives thereof in poultry for the preparation of a medicinal product for preventing and treating osteoporosis” (Ceva Sante Animale, priority 2000, dated 2002).

On to tiludronic acid, for which, in series [1] (1 mg/kg, onset of laying to 55 weeks old), the “Trabecular bone loss during laying” value is “no trabecular bone loss took place during laying”. Further, in series [1] (at 55 weeks of age, 10 mg/kg), the “Trabecular volume versus controls” value is on record as “significantly higher than that of the controls”. Besides, the “Trabecular bone volume of the tarsometatarsal bone” value in series [1] (setting [7]) stood at 11.3 ± 2.5%; in series [1] (setting [8]), 12.0 ± 2.0%; in series [1] (onset of laying, 1 mg/kg single subcutaneous injection at 15-17 weeks old), 10.9 ± 2.9%; in series [1] (onset of laying, 10 mg/kg single subcutaneous injection at 15-17 weeks old), 13.7 ± 3.3%. The “Variation of trabecular bone volume between the two periods” value in series [1] (onset of laying to 55 weeks old, 1 mg/kg) is given as “+4%”; in series [1] (onset of laying to 55 weeks old, 10 mg/kg), −12%. For the same molecule, in series [1] (onset of laying, 10 mg/kg), the “Gain in trabecular bone volume compared with the controls” value is recorded as 12%. Further, the “Average medullary bone volumes, comparison between the groups” value in series [2] (at 55 weeks old, 0, 1 and 10 mg/kg) is listed as “not significantly different between the groups”. Moreover, the entries for the “Volume of medullary bone of the tarsometatarsal bone” value in series [2] (setting [7]) and in series [2] (setting [8]) were 2.75 ± 2.72% and 3.53 ± 3.04%, respectively. In addition, the “Medullary bone volume higher than that in the control animals” value in series [2] (at 55 weeks old, 10 mg/kg) is recorded as 20%. In addition, the “Medullary bone volumes, comparison between the groups” value in series [2] (onset of laying, 0, 1 and 10 mg/kg) was “does not reveal any significant difference between the groups”. Further, the “Efficacy in osteoporosis in menopausal women” value in series [3] is “not demonstrated their efficacy”.

For `NCCCC(O)(P(=O)(O)O)P(=O)(O)O` [alendronic acid], the “Trabecular bone volume higher than that of the control hens” value in series [4] (after laying for 18 weeks, 0.01 mg/kg s.c., 6 administrations (total 0.06 mg/kg) from 14 weeks old) is recorded as “about 35%”. Further, the “Trabecular bone volume higher on average in the treated hens than in the control hens” value in series [4] (onset of laying, 0.01 mg/kg subcutaneously, repeated before laying) is given as at most 30%. Besides, the “Medullary bone volume less than that of the control animals” value in series [5] is given as “about 20%”. The “Effect on egg production” value in series [6] is “harmful effect on egg production”.
